The record followed here is paper PMC5023282, “A rapid fluorometric assay for the S-malonyltransacylase FabD and other sulfhydryl utilizing enzymes” (Journal of Biological Methods, 2016).

For orientation: Km means the substrate concentration at which the rate is half of its maximum.

In this assay the target is T1, FabD (malonyl-coenzyme A transacylase; malonyl-CoA:ACP transacylase) (Escherichia coli, UniProt P0AAI9).
T1 construct: full ORF in pET28b (NcoI/EcoRI), one extra N-terminal glycine, no His tag; expressed in E. coli BL21* DE3
T1 sequence (P0AAI9 2-309): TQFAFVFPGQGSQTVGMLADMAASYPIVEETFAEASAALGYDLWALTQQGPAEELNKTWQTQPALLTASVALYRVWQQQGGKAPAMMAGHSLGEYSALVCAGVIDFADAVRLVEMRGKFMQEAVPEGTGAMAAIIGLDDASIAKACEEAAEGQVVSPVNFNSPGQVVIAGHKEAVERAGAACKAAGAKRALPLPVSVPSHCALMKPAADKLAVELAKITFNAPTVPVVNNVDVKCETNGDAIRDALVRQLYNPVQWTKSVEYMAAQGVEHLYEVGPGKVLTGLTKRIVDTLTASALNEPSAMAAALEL
The experiment in a line: CPM fluorescence detection of CoA-SH after TCA precipitation of holo-ACP, initial rates. It is filed as biochemical. The conditions noted are these: holo-ACP 125 µM; 25 mM MOPS, 100 mM NaCl, 1 mg/ml BSA, pH 7.1, 30°C. The source says:
CPM fluorescence detection of CoA-SH after TCA precipitation of holo-ACP, initial rates on FabD (malonyl-coenzyme A transacylase; malonyl-CoA:ACP transacylase)

On to `CC(C)(COP(=O)(O)OP(=O)(O)OC[C@H]1O[C@@H](n2cnc3c(N)ncnc32)[C@H](O)[C@@H]1OP(=O)(O)O)[C@@H](O)C(=O)NCCC(=O)NCCSC(=O)CC(=O)O` [malonyl-CoA], for which the Km stood at 60 ± 20 µM.
